From patent US12065404B2, “C4-carboxylic acid-substituted tryptamine derivatives and methods of using” (priority 2022, dated 2024)
pEC50, pIC50: −log10 of the molar value. Several values for one entry are separate records, joined by “and”; a condition that tells them apart may be missing. Identical values can stand only once. Marks after values point to notes of the source that are not given here.

Key:
5-HT1A receptor = target: T1, 5-HT1A receptor (Homo sapiens, UniProt P08908); experiment: cAMP-Glo assay of 5-HT1A receptor modulation, +5-HT1A (CHO-K1/5-HT1A/Ga15) vs -5-HT1A (CHO-K1/Ga15) cells; assay type: cell-based; parameters: dose or concentration left out as unconfirmed; details: +5-HT1A vs -5-HT1A cell cultures stimulated with forskolin, increasing ligand concentrations
T1 construct: host or cells: CHO-K1 (co-expressing Ga15)
T1 sequence (P08908 1-422): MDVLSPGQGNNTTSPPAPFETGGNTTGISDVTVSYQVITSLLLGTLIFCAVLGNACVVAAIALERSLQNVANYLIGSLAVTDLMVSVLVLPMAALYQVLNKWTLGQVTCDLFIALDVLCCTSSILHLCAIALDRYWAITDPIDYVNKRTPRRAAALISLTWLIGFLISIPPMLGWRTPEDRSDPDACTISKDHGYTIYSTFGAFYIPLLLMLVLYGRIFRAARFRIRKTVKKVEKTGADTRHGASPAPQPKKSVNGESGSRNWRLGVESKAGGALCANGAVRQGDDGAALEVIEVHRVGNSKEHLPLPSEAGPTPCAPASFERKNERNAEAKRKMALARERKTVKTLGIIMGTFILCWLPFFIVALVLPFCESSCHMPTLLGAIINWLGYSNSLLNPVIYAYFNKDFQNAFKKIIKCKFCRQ

[1] = target: T2, neuronal 5-HT2A receptor (5-HT2AR) (Mus musculus, UniProt P35363); experiment: Drug-induced Head Twitch Response (HTR) in mice; assay type: in vivo, C57BL/6-Elite mice; details: 1 mg/kg i.p., 15-to-30-minute window post-drug, relative to vehicle-treated control mice
T2 construct: HTR was measured in mice treated with a control and test compounds; tissue Charles River; host or cells: live C57BL/6-Elite mice (neuronal receptor)

GABAA = GABAA (Homo sapiens, UniProt P14867+P18507+P47870); assay type: cell-based; details: ion channel
[2] = Mouse pharmacokinetic (PK) study, parent compound and psilocin metabolite in plasma; assay type: in vivo, C57Bl/6 mice; details: for Plasma concentration of psilocin: 24 h
From the text: (§1) Briefly, the procedure was as follows. […] 19, 2022.

[3] = LC-MS measurement of dosing solution concentrations (nominal vs measured); assay type: physicochemical
Protocol: as §1
Pharmacokinetic (PK) evaluations were performed in the same manner as described in Example 1, except compound C(IV) was used in place of compound C(V). […] Thus, only psilocin PK analysis was performed. […] Table 46 summarizes these “measured” concentrations along with corresponding “nominal” concentrations for each dosing solution. Results for psilocin PK following C(IV) administration are found in Tables 47A-47B (0.293 mg/kg IV dose), Tables 48A-48B (0.275 mg/kg oral dose), Tables 49A-49B (0.789 mg/kg oral dose), Tables 50A-50B (2.52 mg/kg oral dose), Table 51 (comparative summary for IV data), Table 52 (comparative summary for oral data), Table 53A (psilocin exposure) and FIGS. 10H (i) and 10H (ii).

5-HT2A receptor = 5-HT2A receptor (Homo sapiens, UniProt P28223); experiment: [3H]ketanserin competition binding assay (SPA) at 5-HT2A; details: 1 nM [3H]ketanserin, FIGS. 3E, 3F
[4] = In vitro metabolic stability / psilocin release, AB serum; assay type: in vitro ADME; details: 10% human AB serum
From the text: (§2) A fundamental evaluation in drug development is the assessment of absorption, distribution, metabolism, excretion, and pharmacokinetics (ADME/PK) (Eddershaw et al., 2000, Drug Discovery Today 5(9): 409-414). […] Drug stability upon exposure to human liver microsomes and liver S9 cellular fractions is a common in vitro assay to approximate in vivo, liver-based drug metabolism (Richardson et al., 2016 Drug Metabolism Letters 10:83-90). First-pass metabolism is also often approximated in vitro using intestinal microsome and cellular S9 fractions (Hatley et al., 2017, Biopharmaceuticals & Drug Disposition, 38(2):155-160). […] Supernatants were analyzed for the presence of candidate prodrugs (parent molecule) and psilocin (the predicted metabolite) using Orbitrap LC-MS (Thermo Scientific) using previously described methods (Menendez-Perdomo et al., 2021, J Mass Spectrom, 56: e4683). […] Assay concentrations (μM) of both parent ‘prodrug’ molecule and psilocin metabolite, as quantified through LC-MS using routine standard curve procedures, were plotted as functions of assay time (minutes). The metabolism rate (T1/2) was determined from the metabolism curve plot using the one phase decay feature of GraphPad PRISM software (Version 9.2.0). The quantity of parent prodrug at time zero was set as 100%. […]

[5] = Stability in enzyme-free control buffer; assay type: physicochemical; details: pH 7.4
From the text: A fundamental evaluation in drug development is the assessment of absorption, distribution, metabolism, excretion, and pharmacokinetics (ADME/PK) (Eddershaw et al., 2000, Drug Discovery Today 5(9): 409-414). […] Drug stability upon exposure to human liver microsomes and liver S9 cellular fractions is a common in vitro assay to approximate in vivo, liver-based drug metabolism (Richardson et al., 2016 Drug Metabolism Letters 10:83-90). First-pass metabolism is also often approximated in vitro using intestinal microsome and cellular S9 fractions (Hatley et al., 2017, Biopharmaceuticals & Drug Disposition, 38(2):155-160). […] Supernatants were analyzed for the presence of candidate prodrugs (parent molecule) and psilocin (the predicted metabolite) using Orbitrap LC-MS (Thermo Scientific) using previously described methods (Menendez-Perdomo et al., 2021, J Mass Spectrom, 56: e4683). […] Assay concentrations (μM) of both parent ‘prodrug’ molecule and psilocin metabolite, as quantified through LC-MS using routine standard curve procedures, were plotted as functions of assay time (minutes). The metabolism rate (T1/2) was determined from the metabolism curve plot using the one phase decay feature of GraphPad PRISM software (Version 9.2.0). The quantity of parent prodrug at time zero was set as 100%.

[6] = In vitro metabolic stability / psilocin release, liver fractions (HLM, HLS9); assay type: in vitro ADME, human; details: HLM and HLS9, 2 hours, 37° C.
From the text: as §2

Chain of GABAA (P14867 28-456): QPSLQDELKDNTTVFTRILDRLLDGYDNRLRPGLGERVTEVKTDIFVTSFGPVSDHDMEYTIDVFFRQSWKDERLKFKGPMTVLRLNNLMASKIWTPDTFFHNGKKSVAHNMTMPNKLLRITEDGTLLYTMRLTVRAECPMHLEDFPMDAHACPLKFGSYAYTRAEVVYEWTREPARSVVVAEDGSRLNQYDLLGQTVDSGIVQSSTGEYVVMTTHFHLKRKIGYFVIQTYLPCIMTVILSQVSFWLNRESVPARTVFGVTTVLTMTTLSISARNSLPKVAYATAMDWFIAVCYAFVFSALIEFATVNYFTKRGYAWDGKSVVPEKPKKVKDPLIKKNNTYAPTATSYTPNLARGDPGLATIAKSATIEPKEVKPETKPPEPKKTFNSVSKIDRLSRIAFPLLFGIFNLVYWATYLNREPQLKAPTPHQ
Chain of GABAA (P47870 26-512): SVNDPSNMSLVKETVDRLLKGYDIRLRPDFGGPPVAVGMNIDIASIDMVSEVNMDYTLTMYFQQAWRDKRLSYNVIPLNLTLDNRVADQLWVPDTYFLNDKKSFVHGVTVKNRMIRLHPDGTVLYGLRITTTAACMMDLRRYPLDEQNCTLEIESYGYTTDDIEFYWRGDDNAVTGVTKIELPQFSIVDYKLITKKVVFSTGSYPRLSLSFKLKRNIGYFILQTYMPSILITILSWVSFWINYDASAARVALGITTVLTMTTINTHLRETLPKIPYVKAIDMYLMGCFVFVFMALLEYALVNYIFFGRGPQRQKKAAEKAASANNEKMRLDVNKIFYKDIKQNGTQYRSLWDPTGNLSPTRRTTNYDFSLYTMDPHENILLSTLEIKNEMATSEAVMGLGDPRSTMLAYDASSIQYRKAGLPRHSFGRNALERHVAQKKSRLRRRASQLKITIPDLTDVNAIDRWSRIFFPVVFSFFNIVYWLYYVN
Chain of GABAA (P18507 40-475): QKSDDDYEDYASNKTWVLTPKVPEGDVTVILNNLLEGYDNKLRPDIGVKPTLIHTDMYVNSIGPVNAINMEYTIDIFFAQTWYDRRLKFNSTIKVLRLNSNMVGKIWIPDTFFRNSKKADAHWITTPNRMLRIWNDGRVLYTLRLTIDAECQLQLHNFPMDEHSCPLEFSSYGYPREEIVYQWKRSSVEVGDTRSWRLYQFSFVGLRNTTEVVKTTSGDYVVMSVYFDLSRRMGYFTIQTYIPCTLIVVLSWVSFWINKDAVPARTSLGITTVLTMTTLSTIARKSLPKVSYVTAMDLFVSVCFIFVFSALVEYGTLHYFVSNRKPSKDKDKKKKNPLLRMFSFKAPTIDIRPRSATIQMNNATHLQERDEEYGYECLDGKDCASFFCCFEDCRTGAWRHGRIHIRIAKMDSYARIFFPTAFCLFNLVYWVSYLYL
Chain of 5-HT2A receptor (P28223 whole entry): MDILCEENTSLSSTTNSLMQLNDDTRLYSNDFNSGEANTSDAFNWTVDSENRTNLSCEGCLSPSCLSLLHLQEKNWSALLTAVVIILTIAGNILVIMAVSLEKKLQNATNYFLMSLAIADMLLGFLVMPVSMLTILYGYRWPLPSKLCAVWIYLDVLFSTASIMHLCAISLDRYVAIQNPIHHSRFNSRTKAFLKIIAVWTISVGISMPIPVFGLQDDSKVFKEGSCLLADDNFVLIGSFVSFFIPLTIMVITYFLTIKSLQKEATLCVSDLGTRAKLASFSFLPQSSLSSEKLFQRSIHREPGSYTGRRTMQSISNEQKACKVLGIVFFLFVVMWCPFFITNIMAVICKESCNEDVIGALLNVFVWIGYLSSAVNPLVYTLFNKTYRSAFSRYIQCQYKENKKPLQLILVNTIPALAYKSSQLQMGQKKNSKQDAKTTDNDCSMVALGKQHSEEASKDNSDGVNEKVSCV
T2 sequence (P35363 whole entry): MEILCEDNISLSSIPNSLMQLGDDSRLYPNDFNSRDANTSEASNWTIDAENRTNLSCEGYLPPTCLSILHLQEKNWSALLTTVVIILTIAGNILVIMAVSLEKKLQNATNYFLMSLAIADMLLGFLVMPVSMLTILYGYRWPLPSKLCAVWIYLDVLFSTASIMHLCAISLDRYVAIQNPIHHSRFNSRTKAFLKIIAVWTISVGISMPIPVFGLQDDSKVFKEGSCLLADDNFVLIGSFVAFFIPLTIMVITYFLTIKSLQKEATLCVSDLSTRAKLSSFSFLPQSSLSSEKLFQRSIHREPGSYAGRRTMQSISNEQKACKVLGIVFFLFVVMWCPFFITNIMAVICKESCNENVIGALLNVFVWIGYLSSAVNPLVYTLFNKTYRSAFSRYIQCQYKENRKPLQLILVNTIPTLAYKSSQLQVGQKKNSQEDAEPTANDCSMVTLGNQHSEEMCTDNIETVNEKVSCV

With `CN(C)CCc1c[nH]c2cccc(OC(=O)CC3CC3)c12` [C(IV)] the “5-HT1A receptor modulation (reduction of cAMP levels)” value (5-HT1A receptor) was “significant receptor modulation”, the “Incidences of Head Twitch Response (HTR)” value [1] was “Elevated incidences of HTR” and the pIC50 (GABAA; blocker (BL)) was < 4.00. The pEC50 (GABAA; opener (OP)) was < 4.00, the “Plasma concentration of psilocin” value ([2]; 0.275 mg/kg oral C(IV), animals M64-M66) was “No Peak” and the “Plasma concentration of psilocin” value ([2]; 0.789 mg/kg oral C(IV), animals M67-M69) was “No Peak”. For the same compound, the “Detectability of administered compound in plasma, any animals at any dose” value ([2]; mouse, i.v. and oral doses) was “not detectable in any animals at any dose”, the “Psilocin, measured, in C(IV) residual dosing solution” value ([3]; C(IV) nominal 0.1 mg/mL, not accurate, peak below LLOQ, for reference only) was 0.00174^d mg/mL and the “Psilocin, measured, in C(IV) residual dosing solution” value ([3]; C(IV) nominal 0.2 mg/mL) was 0.00324 mg/mL. For the same compound, the “Psilocin, measured, in C(IV) residual dosing solution” value ([3]; C(IV) nominal 0.3 mg/mL) was 0.00474 mg/mL, the “Psilocin, measured, in C(IV) residual dosing solution” value ([3]; C(IV) nominal 1 mg/mL) was 0.0234 mg/mL and the “Stability in dosing solutions” value ([3]; PK dosing solutions) was “compound instability in dosing solutions”. For the same compound, the “C(IV), measured, residual dosing solution concentration” value ([3]; nominal 0.1 mg/mL) was 0.0275 mg/mL, the “C(IV), measured, residual dosing solution concentration” value ([3]; nominal 0.2 mg/mL) was 0.0586 mg/mL and the “C(IV), measured, residual dosing solution concentration” value ([3]; nominal 0.3 mg/mL) was 0.0789 mg/mL. For the same compound, the “C(IV), measured, residual dosing solution concentration” value ([3]; nominal 1 mg/mL) was 0.252 mg/mL.

With `CN(C)CCc1c[nH]c2cccc(O)c12` [psilocin, reference compound] the “5-HT1A receptor modulation (reduction of cAMP levels)” value (5-HT1A receptor) was “reduction in cAMP levels” and the “Competition binding vs [3H]ketanserin at 5-HT2A (control outcome)” value (5-HT2A receptor) was “binding”.

With `CN(C)CCc1c[nH]c2cccc(OP(=O)(O)O)c12` [psilocybin, reference compound] the “Stability / conversion to psilocin in serum” value [4] was “stable in serum with no conversion to psilocin”, the “Stability in assay buffer” value [5] was “stability of psilocybin was confirmed in assay buffer” and the “Stability / conversion to psilocin in liver fractions” value [6] was “stable in liver fractions with no conversion to psilocin”. For the same compound, the tmax ([2]; male, C57Bl/6, plasma, iv, mouse, 1 mg/kg i.v., individual animals, read-out: tmax of administered (parent) compound) was 5 min, the “Detectability of administered compound in plasma, i.v. administered animals” value ([2]; mouse, 1 mg/kg i.v.) was “only detectable in i.v. administered animals” and the “Detectability of administered compound in plasma, orally administered animals” value ([2]; mouse, oral, any dose (1, 3, 10 mg/kg)) was “not detectable in orally administered animals at any dose”. For the same compound, the “Plasma concentration of administered (parent) compound” value (“Plasma concentration of administered” below) ([2]; mouse, 1 mg/kg i.v., 5 min, individual animals, 1 mg/kg) was 19.7 ng/mL and 76.8 ng/mL and 334 ng/mL, the “Plasma concentration of administered” value ([2]; mouse, 1 mg/kg i.v., 0.25 h, individual animals, 1 mg/kg) was 3.32 ng/mL and 8.95 ng/mL and 27.2 ng/mL and the “Plasma concentration of administered” value ([2]; mouse, 1 mg/kg i.v., 0.5 h, individual animals, 1 mg/kg) was “No Peak and 2.35 ng/mL and 6.21 ng/mL”. The “Plasma concentration of administered” value ([2]; mouse, 1 mg/kg i.v., 1 h, individual animals, 1 mg/kg) was “No Peak”, the “Plasma concentration of administered” value ([2]; mouse, 1 mg/kg i.v., 2 h, individual animals) was “No Peak” and the “Plasma concentration of administered” value ([2]; mouse, 1 mg/kg i.v., 4 h, individual animals) was “No Peak”. The “Plasma concentration of administered” value ([2]; mouse, 1 mg/kg i.v., 6 h, individual animals) was “No Peak”, the “Plasma concentration of administered” value ([2]; mouse, 1 mg/kg i.v., 8 h, individual animals, 1 mg/kg) was “No Peak” and the “tmax of administered (parent) compound” value ([2]; mouse, 1 mg/kg i.v., individual animals) was 5 min. For the same compound, the “Cmax of administered (parent) compound” value ([2]; mouse, 1 mg/kg i.v., individual animals, 1 mg/kg) was 19.7 ng/mL and 76.8 ng/mL and 334 ng/mL, the “Cmax of administered (parent) compound” value ([2]; mouse, 1 mg/kg i.v., mean ± SD) was 144 ± 167 ng/mL and the “tmax of administered (parent) compound” value ([2]; mouse, 1 mg/kg i.v., mean ± SD) was 5 ± 0 min. For the same compound, the “Plasma concentration of psilocin” value ([2]; mouse, prodrug 1.56 mg/kg oral (nominal 1 mg/kg), individual animals) was “BLQ (BLQ denotes below the lower limit of quantitation (0.2 ng/ml).)” and the “Plasma concentration of psilocin” value ([2]; mouse, prodrug 3 mg/kg oral, individual animals) was “BLQ (BLQ denotes below the lower limit of quantitation (0.2 ng/ml).)”.

With `N[C@@H](Cc1c[nH]c2ccccc12)C(=O)O` [tryptophan, reference compound] the “5-HT1A receptor modulation (reduction of cAMP levels)” value (5-HT1A receptor) was “no reduction in cellular cAMP levels” and the “Competition binding vs [3H]ketanserin at 5-HT2A (control outcome)” value (5-HT2A receptor) was “no binding”.
